Where two headings read alike, the source gives them in different places. Where a SMILES comes first, the peptide text is derived from it. Bridges are numbered along the chain shown (N, C = ends). [ ]: non-standard residue; d: D form. 2Nal = N[C@@H](Cc1ccc2ccccc2c1)C(=O)O; d2Nal = N[C@H](Cc1ccc2ccccc2c1)C(=O)O
Key:
[1] = target: T1, GRP receptors on rat pancreatic acini (Rattus norvegicus, UniProt P52500); experiment: Binding of 125I-[Tyr4]bombesin to pancreatic acini; conditions: read-out: Ki 125I-[Tyr4]Bn Binding, GRP Receptor, Rat Pancreatic Acini; Ki by Cheng method
T1 construct: from tissue; host or cells: dispersed pancreatic acini
Excerpt: Nonsaturable binding was<10% of total binding in all experiments.

NMB receptor [2] = target: T2, NMB receptor (Rattus norvegicus, UniProt P24053); experiment: NMB membrane receptor assay, 125I-NMB, rat olfactory bulb membranes; assay type: binding; design: Membranes were prepared from rat olfactory bulb (NMB membrane receptor assay); from tissue; host or cells: rat olfactory bulb membranes; conditions: for Ki: Cheng method, unit inferred, read-out: affinity, 125I-NMB, Rat Olfactory bulb membranes (neuromedin B receptors)
T2 sequence (P24053 1-390): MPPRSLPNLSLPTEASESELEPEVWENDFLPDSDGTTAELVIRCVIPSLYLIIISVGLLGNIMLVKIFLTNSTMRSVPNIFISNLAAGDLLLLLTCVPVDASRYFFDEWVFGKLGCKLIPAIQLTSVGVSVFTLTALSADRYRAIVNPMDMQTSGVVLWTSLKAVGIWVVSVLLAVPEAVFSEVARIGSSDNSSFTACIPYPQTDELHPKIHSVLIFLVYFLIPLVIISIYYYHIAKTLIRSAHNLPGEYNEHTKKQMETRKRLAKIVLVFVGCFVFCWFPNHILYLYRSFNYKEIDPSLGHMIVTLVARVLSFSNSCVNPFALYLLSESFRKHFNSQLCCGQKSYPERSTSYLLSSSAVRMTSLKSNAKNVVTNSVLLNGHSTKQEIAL

NMB receptor [3] = target: T2, NMB receptor; experiment: [3H]inositol phosphates in NMB-R transfected cells (alone or NMB-stimulated); assay type: cell-based; design: a full length NMB-preferring bombesin receptor clone generated from rat esophagus; expressed in transfected cells; conditions: NMB-R transfected cells; for IC50 / effect at 10 μM on NMB-stimulated increase in [3H]IP: 3 nM NMB; for [3H]IP, analog Alone (10 μM): analog 10 μM alone, control 13 ± 3; for [3H]IP, analog Plus NMB (3 nM): analog 10 μM plus NMB 3 nM, NMB without analog 186 ± 58
In short: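 BALB 3T3 cells stably expressing rat NMB receptor, labelled 48 h at 37 °C with 100 μCi/ml myo-[3H]inositol, preincubated 15 min in buffer with 10 mM LiCl, then exposed 60 min at 37 °C to agonists or to 3 nM NMB plus antagonists. Total [3H]inositol phosphates isolated by anion-exchange chromatography.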

somatostatin receptors = target: T3, somatostatin receptors (Rattus norvegicus, UniProt P30680); experiment: Somatostatin membrane receptor assay, 125I-[Tyr11]SS-14, AR 42J cell membranes; assay type: binding; conditions: Cheng method; table prints no unit (b360 gives nM for a Table 4 value); read-out: affinity, 125I-[Tyr11]SS-14, AR 42J Cell Membranes (somatostatin receptors)
T3 construct: endogenous in cells; host or cells: rat AR 42J pancreatic acinar tumor cell membranes

GRP receptor [4] = target: T4, GRP receptor (Rattus norvegicus, UniProt P52500); experiment: Amylase release from rat pancreatic acini (alone or Bn-stimulated); assay type: cell-based; design: from tissue; host or cells: dispersed pancreatic acini; conditions: for Amylase Release, analog Alone (10 μM): analog 10 μM alone, control 4 ± 1; for Amylase Release, analog Plus Bn (0.3 nM): analog 10 μM plus Bn 0.3 nM, Bn without analog 15 ± 1; for IC50: read-out: IC50 Amylase Release, GRP Receptor, Rat Pancreatic Acini
In short: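 Rat pancreatic acini incubated 30 min at 37° C without additives or with somatostatin octapeptide analog, Bn, NMB or combinations. Amylase release expressed as percent of total cellular amylase released during incubation; for inhibition, somatostatin analog (10 μM) tested on 0.3 nM Bn-stimulated release.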

mu opioid receptors = target: T5, mu opioid receptors (Rattus norvegicus, UniProt P33535); experiment: Mu opioid membrane assay, [3H]DAGO, rat forebrain membranes; assay type: binding
T5 construct: rat forebrain (TRH, mu and delta opioid membrane assays); from tissue; host or cells: rat forebrain membranes

GRP receptor [5] = target: T4, GRP receptor; experiment: GRP membrane receptor assay, 125I-[Tyr4]Bn, AR 42J cell membranes; assay type: binding; design: endogenous in cells; host or cells: rat AR 42J pancreatic acinar tumor cell membranes; conditions: read-out: affinity, 125I-[Tyr4]Bn, AR 42J Cell Membranes (GRP receptors); Cheng method; unit inferred
rat NMB receptor = target: T6, rat NMB receptor (Rattus norvegicus, UniProt P24053); experiment: Binding of 125I-[D-Tyr0]NMB to NMB-R transfected BALB 3T3 cells; conditions: for fold decrease in NMB receptor affinity compared with cyclo SS-octa (#1): structure-function comparison from Table 1
T6 construct: a full length NMB-preferring bombesin receptor clone generated from rat esophagus; expressed in transfected cells
T6 sequence (P24053 1-390): T2 sequence (P24053 1-390)

[6] = read-out: IC50 NMB-stimulated [3H]IP, NMB Receptor, Transfected Cells
[7] = Cheng method, unit inferred, read-out: affinity, [3H]DAGO, Rat Forebrain membranes (mu opioid receptors)
[8] = NMB-R transfected BALB 3T3 cells, Ki by Cheng method, read-out: Ki 125I-NMB Binding, NMB Receptor, Transfected Cells
[9] = NMB-R transfected cells, value or range given for a group, read-out: K1, 125I-NMB binding to NMB-R transfected cells (text)

T5 sequence (P33535 whole entry): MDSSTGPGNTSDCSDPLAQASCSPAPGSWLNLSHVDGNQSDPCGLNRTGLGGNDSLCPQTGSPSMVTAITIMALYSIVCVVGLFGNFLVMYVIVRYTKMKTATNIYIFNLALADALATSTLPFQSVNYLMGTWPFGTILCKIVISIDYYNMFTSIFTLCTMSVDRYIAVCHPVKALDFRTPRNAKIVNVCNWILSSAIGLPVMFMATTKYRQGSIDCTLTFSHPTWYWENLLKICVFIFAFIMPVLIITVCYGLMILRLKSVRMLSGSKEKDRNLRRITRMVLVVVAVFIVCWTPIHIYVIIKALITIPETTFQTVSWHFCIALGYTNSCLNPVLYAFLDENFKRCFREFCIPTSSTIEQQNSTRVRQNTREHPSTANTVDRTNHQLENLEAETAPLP
T1 sequence (P52500 whole entry): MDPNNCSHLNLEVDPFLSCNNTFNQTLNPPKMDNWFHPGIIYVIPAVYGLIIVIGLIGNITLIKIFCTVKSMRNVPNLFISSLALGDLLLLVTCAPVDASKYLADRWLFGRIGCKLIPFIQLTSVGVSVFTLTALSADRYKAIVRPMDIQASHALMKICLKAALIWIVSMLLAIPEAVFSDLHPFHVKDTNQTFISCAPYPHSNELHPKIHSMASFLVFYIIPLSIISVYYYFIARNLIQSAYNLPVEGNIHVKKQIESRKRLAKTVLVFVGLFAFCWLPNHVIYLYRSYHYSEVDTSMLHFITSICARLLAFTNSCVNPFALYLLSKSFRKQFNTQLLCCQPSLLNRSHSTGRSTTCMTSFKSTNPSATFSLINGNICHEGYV
T4 sequence (P52500 whole entry): as above
T3 sequence (P30680 whole entry): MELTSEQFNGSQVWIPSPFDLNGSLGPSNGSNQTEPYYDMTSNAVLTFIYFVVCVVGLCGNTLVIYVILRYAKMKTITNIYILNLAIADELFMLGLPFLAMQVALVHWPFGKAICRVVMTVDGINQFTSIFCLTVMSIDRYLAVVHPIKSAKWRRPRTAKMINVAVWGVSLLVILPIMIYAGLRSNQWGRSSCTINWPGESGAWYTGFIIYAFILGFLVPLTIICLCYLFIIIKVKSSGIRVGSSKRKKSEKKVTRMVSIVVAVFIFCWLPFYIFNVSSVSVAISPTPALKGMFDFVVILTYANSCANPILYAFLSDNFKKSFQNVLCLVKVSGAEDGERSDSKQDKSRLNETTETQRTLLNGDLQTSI

SMILES	Ki [1] [µM]	Ki (NMB receptor [2]) [nM]	IC50 (NMB receptor [3]; [6]) [µM]	[3H]IP, analog Alone (10 μM) (NMB receptor [3]) [dym × 10^3]	[3H]IP, analog Plus NMB (3 nM) (NMB receptor [3]) [dym × 10^3]	Ki (somatostatin receptors) [nM]	Amylase Release, analog Alone (10 μM) (GRP receptor [4]) [% total]	Amylase Release, analog Plus Bn (0.3 nM) (GRP receptor [4]) [% total]	IC50 (GRP receptor [4]) [µM]	Ki (mu opioid receptors; [7]) [nM]	Ki (GRP receptor [5]) [nM]	Ki (rat NMB receptor; [8]) [nM]	fold decrease in NMB receptor affinity compared with cyclo SS-octa (#1) (rat NMB receptor) [fold]	fold by which cyclo SS-octa is more potent than the analog, 125I-NMB binding (rat NMB receptor; NMB-R transfected cells) [fold]	Ki (rat NMB receptor; [9]) [nM]	effect at 10 μM on NMB-stimulated increase in [3H]IP (NMB receptor [3])	further results
C[C@@H](O)[C@H](NC(=O)[C@@H]1CSSC[C@H](NC(=O)[C@H](N)Cc2ccc3ccccc3c2)C(=O)N[C@@H](Cc2ccc(O)cc2)C(=O)N[C@H](Cc2c[nH]c3ccccc23)C(=O)N[C@@H](CCCCN)C(=O)N[C@@H](Cc2ccc3ccccc3c2)C(=O)N1)C(N)=O [Analog #2, H2 -D-Nal-Cys-Tyr-D-Trp-Lys-Nal-Cys-Thr-NH2]	16.3 ± 3.82	85 ± 20	6.67 ± 0.435	11 ± 2	39 ± 7	0.5 ± 0.1	5 ± 1	13 ± 1	> 10	1.9 ± 0.7	950 ± 70	772 ± 94	4				
CC(C)[C@@H]1NC(=O)[C@H](CCCCN)NC(=O)[C@@H](Cc2c[nH]c3ccccc23)NC(=O)[C@H](Cc2ccc(O)cc2)NC(=O)[C@@H](NC(=O)[C@H](N)Cc2c[nH]c3ccccc23)CSSC[C@@H](C(=O)N[C@@H](Cc2ccc3ccccc3c2)C(N)=O)NC1=O [Analog #12, H2 -D-Trp-Cys-Tyr-D-Trp-Lys-Val-Cys-Nal-NH2] (H-[dW]CY[dW]KVC[2Nal]-NH2; disulfide 2-7)	> 10	1180 ± 520	4.69 ± 0.927	9 ± 2	43 ± 2	3.1 ± 1.6	3 ± 1	13 ± 1	> 10	> 10000	2100 ± 150	1410 ± 127	4 to 7	9	1400 to 2300		
C[C@@H](O)[C@@H]1NC(=O)[C@H](CCCCN)NC(=O)[C@@H](Cc2c[nH]c3ccccc23)NC(=O)[C@H](Cc2ccc(O)cc2)NC(=O)[C@@H](NC(=O)[C@H](N)Cc2ccccc2)CSSC[C@@H](C(=O)N[C@@H](Cc2ccc3ccccc3c2)C(N)=O)NC1=O [Analog #7, H2 -D-phe-Cys-Tyr-D-Trp-Lys-Thr-Cys-Nal-NH2] (H-[dF]CY[dW]KTC[2Nal]-NH2; disulfide 2-7)	31 ± 4.65	740 ± 160	36.2 ± 4.97	15 ± 1	99 ± 24	0.86 ± 0.23	3 ± 1	16 ± 1	> 10	200	750 ± 10	4360 ± 328		18	3900 to 4400		IC50 (NMB receptor [3]; read-out: IC50 NMB-stimulated [3H]IP, Transfected Cells (values in μM)): > 10 µM
CC(C)[C@@H]1NC(=O)[C@H](CCCCN)NC(=O)[C@@H](Cc2c[nH]c3ccccc23)NC(=O)[C@H](Cc2ccc(O)cc2)NC(=O)[C@@H](NC(=O)[C@H](N)Cc2ccc3ccccc3c2)CSSC[C@@H](C(=O)N[C@@H](Cc2ccc3ccccc3c2)C(N)=O)NC1=O [Analog #1, H2 -D-Nal-Cys-Tyr-D-Trp-Lys-Val-Cys-Nal-NH2] (H-[d2Nal]CY[dW]KVC[2Nal]-NH2; disulfide 2-7)	18.3 ± 2.11	43 ± 9	0.895 ± 0.098	12 ± 2	8 ± 4	0.8 ± 0.5	5 ± 1	15 ± 2	> 10		2870 ± 520	216 ± 36				completely inhibited	fold greater affinity for NMB receptors than mu opioid receptors (NMB receptor [2]; membranes, Table 4): 10 fold; concentration causing detectible inhibition of NMB-stimulated [3H]IP (NMB receptor [3]): 0.3 µM; slope of Schild regression (NMB receptor [3]; not significantly different from unity): 1.1(+0.2); effect on Bn-stimulated amylase release (GRP receptor [4]; 0.3 nM Bn): did not inhibit; Ki (mu opioid receptors; rat forebrain membranes, read-out: affinity, inhibition of [3H]DAGO binding to mu opioid receptors): 430 ± 130 nM; Kd (rat NMB receptor; NMB-R transfected 3T3 cells, read-out: Kd, inhibition of 125I-[D-Tyr0]NMB binding, NMB-R transfected 3T3 cells): 216 nM; concentration causing complete inhibition of 125I-NMB binding (rat NMB receptor; NMB-R transfected cells): 3 µM; concentration causing detectible inhibition of 125I-NMB binding (rat NMB receptor; NMB-R transfected cells): 0.1 µM; type of antagonism (rat NMB receptor; NMB-R transfected cells, 0.5 μM): competitive antagonist; IC50 (rat NMB receptor; NMB-R transfected cells, read-out: half-maximal inhibition of 125I-NMB binding): 216 nM
CC(C)[C@@H]1NC(=O)[C@H](CCCCN)NC(=O)[C@@H](Cc2c[nH]c3ccccc23)NC(=O)[C@H](Cc2ccc(O)cc2)NC(=O)[C@H](NC(=O)[C@H](N)Cc2ccc3ccccc3c2)CSSC[C@@H](C(=O)N[C@@H](Cc2ccc3ccccc3c2)C(N)=O)NC1=O [Analog #10, H2 -D-Nal-D-Cys-Tyr-D-Trp-Lys-Val-Cys-Nal-NH2] (H-[d2Nal][dC]Y[dW]KVC[2Nal]-NH2; disulfide 2-7)	> 10	920 ± 350	3.99 ± 0.781	10 ± 3	4 ± 2	91 ± 23	3 ± 1	16 ± 1	> 10	1020	1500 ± 160	960 ± 109	5			completely inhibited	

Reference: US5462926A (Biomeasure, Inc., priority 1993, dated 1995)
